From US7166472B2, “Method for the identification of agents that inhibit or promote cataracts and uses thereof” (The General Hospital Corporation, priority 2000, dated 2007) come the findings set out here.

Experiment [1] in a line: Metal reduction assay, Cu(II) to Cu(I) (BC/BCA indicator). The conditions noted are these: test compound 10 μM, Cu(II)-glycine 25 μM, PBS pH 7.4, 37° C., dark, one hour. In kind it is biochemical. As for the experimental part:
(§1) Metal Reduction Assays—Assays were performed using a 96-well microtiter plate (Costar, Mass.). Test compounds from the kynurenine pathway (10 μM) or, as a positive control, ascorbic acid (ASC, 10 μM) were co-incubated with either Fe(III)-citrate (25 μM) and the Fe(II) indicator bathophenanthroline disulfonic acid (BP, 250 μM), or Cu(II)-glycine (25 μM) and the Cu(I) indicator bathocuproine disulfonic acid (BC) or bicinchoninic acid (BCA, 250 μM). Incubations were conducted in PBS, pH 7.4, at 37° C. in the dark for one hour. Absorbencies were then measured using a plate reader (SPECTRAmax Plus, Molecular Devices, CA) at the appropriate wavelengths: Fe(II)-BP complex at 535 nm (the known molar absorption coefficient, M535,=22140 M^−1 cm^−1), Cu(I)-BC complex at 483 nm, M483=12250 M^−1cm^−1), or Cu(I)-BCA complex at 562 nm, M562=7700 M^−1cm^−1). In control samples, absorbance from the metal ion and indicator in the absence of test compound and the absorbance of test compound in the presence of metal ions, but in the absence of indicator, were determined. The absorbencies from these controls were deducted from those obtained in the presence of the test compound, metal and indicator to yield the net absorbance (ΔA). Fe(II) or Cu(I) concentrations (μM) were calculated according to the formula: C(μM)=ΔA*10^6/Mλ.
The compounds comprising the kynurenine pathway (FIG. 1) were assayed for their ability to reduce […] and Cu(II) (FIG. 2A). […] Values represent the mean±SD for three independent measurements.

The nature of experiment [2]: Metal reduction assay, Fe(III) to Fe(II) (BP indicator). The conditions noted are these: test compound 10 μM, Fe(III)-citrate 25 μM, PBS pH 7.4, 37° C., dark, one hour. In kind it is biochemical. The procedure:
as §1, with “C(μM)=ΔA*10^6/Mλ. […]” for “C(μM)=ΔA*10^6/Mλ.”

Experiment [3] is described as follows: Cyclic voltammetry of kynurenine metabolites with Cu(II). Format: physicochemical. The conditions noted are these: metabolite 100 μM, cupric chloride 25 μM, PBS pH 7.4. As for the experimental part: Cyclic Voltammetry—Cyclic voltammetry was performed at room temperature (22±2° C.) on ambient solutions using an EG&G PAR potentiostat, Model 273. The potentiostat was operated in Ramp Mode, generating a potential staircase waveform with a 0.25 mV step height. The potential window of +0.15 to −0.4V, in which Cu(I) is electroactive, but the metabolites are not, was scanned in both directions at a rate of 100 mV/sec. The current response was passed through a 5.3 Hz low pass filter. A minimum of three cycles were collected for each scan, ensuring the stability of the electrochemical response. The electrochemical cell consisted of an indium/tin oxide working electrode (Delta Technologies) with an active area of 0.32 cm^2, a platinum wire auxiliary electrode, and a Ag/AgCl (1 M KCl) reference electrode (Microelectrodes Inc.). Both the auxiliary and reference electrodes were positioned in the cell in close proximity to the working electrode. The working electrodes were pretreated with successive 10 minute sonications in Alconox (˜8 g/L), 95% ethanol, Milli-Q purified H2O (2×), and PBS (pH 7.4), followed by an overnight soak in PBS (pH 7.4). The ITO electrodes were subsequently “activated” immediately prior to use by successive cycling in PBS for three cycles in each of the following potential windows: +0.15 ? −0.4 V, +0.4 ? −0.4 V, and +1.0 ? −0.4 V. Cupric chloride (25 μM; Allied Chemical) was used as the Cu(II) source. Background voltammograms were obtained on each new electrode before testing the kynurenine pathway metabolites. PBS solutions of KYN, 3-HK, ANA, and 3-HAA (each at 100 μM) were separately scanned with and without added Cu(II) (25 μM). Each experiment also included a scan of Cu(II) (25 μM) in PBS without added test compound. All solutions were tested within minutes of being prepared. Each test was repeated to ensure the reproducibility of the results.
The voltammograms in FIGS. 3A–3D compare 3-HK and 3-HAA to their corresponding non-phenolic analogs, kynurenine (KYN) and anthranilic acid (ANA), in aqueous solutions of Cu(II) at pH 7.4. […] At potentials above +0.15 V, the metabolites undergo direct irreversible oxidation, a reaction that is not considered further here. Cyclic voltammetry of Cu(II) in PBS yielded a current response at ≈−100 mV due to reduction of the metal ion (scan “b” in each panel).

Experiment [4] is described as follows: Hydrogen peroxide assay (DCF fluorometric). As to conditions: for hydrogen peroxide generated: ambient gas conditions, CHELEX-treated PBS, FIG. 4C. In kind it is biochemical. As for the experimental part: Hydrogen Peroxide Assay—The fluorometric assay for hydrogen peroxide is based on the dichlorofluorescein diacetate (DCF) method (Molecular Probes, Eugene, Oreg.). The DCF solution (5 mM) in 100% ethanol was deacetylated in the presence of 0.01 M NaOH for 30 minutes and neutralized. Horseradish peroxidase (200 U/ml) was then added and the DCF concentration adjusted to 200 μM in PBS. The reaction solutions were carried out in PBS, pH 7.4, in a 96-well format plate (total volume=300 μL/well) and contained a test compound (KYN, 3-HK, 3-HAA, ANA, or ASC, each at 10 μM), deacetylated DCF (20 μM), and Cu(II)-glycine (1 μM) as indicated, incubated at 37° C. for 60 minutes. […] Abolition of the reading by co-incubation with catalase (1000 U/ml) was used for establishing H2O2 specificity. The fluorescent readings were recorded by a Packard FLURORCOUNT™ fluorescent plate reader with a 485 nm excitation filter and 530 nm emission filter. Concentrations were determined by comparison to a standard curve using reagent grade hydrogen peroxide in CHELEX™ chelating ion exchanae resin-treated PBS buffer, pH 7.4.
Reactions were conducted in the absence of added Cu(II), in the presence of added glycine-complexed Cu(II) (1 μM), in the presence of added glycine-complexed Cu(II) (1 μM) and catalase (1000 U/ml), or with added glycine-complexed Cu(II) (1 μM) and the copper chelator triethylenetetramine (TETA, 200 μM).

The nature of experiment [5]: Thiobarbituric acid-reactive substance (TBARS) assay for hydroxyl radical. The conditions noted are these: reaction with Cu(II). In kind it is biochemical. The text has this: Although two Fenton chemistry substrates, hydrogen peroxide and reduced redox-active metal, are produced by 3-HK and 3-HAA, evidence of the hydroxyl radical was not detected using the thiobarbituric acid-reactive substance assay (Huang, X. et al., Biochem. 38:7609–7616 (1999)) (data not shown).

Experiment [6] in a line: Superoxide assay (dihydroethidium fluorometric). In kind it is biochemical. The conditions noted are these: test compound 10 μM; for effect of Cu(II) on superoxide generation: Cu(II)-glycine 1 μM; for superoxide production: ambient oxygen, dark, 60 minutes. As for the experimental part:
Superoxide Assay—The fluorometric assay for superoxide is based upon the dihydroethidium (DHE, HYDROETHDNE™) method (Molecular Probes, Eugene, Oreg.) and used according to the manufacturer's instructions. DHE (1 mM) was freshly prepared in 100% argon-sparged DMSO. The reaction solutions were carried out in PBS, pH 7.4, under ambient gas conditions, in 96-well format plates and contained a test compound (KYN, 3-HK, 3-HAA, and ANA, each at 10 μM), DHE (100 μM), +/− Cu(II)-glycine (1 μM) and incubated at 37EC for 60 minutes. […] Abolition of the reading by co-incubation with superoxide dismutase (1000 U/ml) was used for establishing superoxide specificity. The fluorescent readings were recorded by a Packard FLUOROCOUNT™ fluorescent plate reader with a 510 nm excitation filter and 590 nm emission filter. Potassium superoxide dissolved in degassed DMSO was used as a positive control.

Experiment [7] deals with T1, α-crystallin (Bos taurus, UniProt P02470+P02510).
T1 sequence (P02470 1-173): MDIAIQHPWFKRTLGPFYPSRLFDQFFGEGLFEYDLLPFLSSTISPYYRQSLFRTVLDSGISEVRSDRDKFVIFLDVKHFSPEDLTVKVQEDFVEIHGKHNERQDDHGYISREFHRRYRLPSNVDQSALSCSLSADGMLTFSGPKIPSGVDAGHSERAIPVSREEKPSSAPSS
T1 sequence (P02510 1-175): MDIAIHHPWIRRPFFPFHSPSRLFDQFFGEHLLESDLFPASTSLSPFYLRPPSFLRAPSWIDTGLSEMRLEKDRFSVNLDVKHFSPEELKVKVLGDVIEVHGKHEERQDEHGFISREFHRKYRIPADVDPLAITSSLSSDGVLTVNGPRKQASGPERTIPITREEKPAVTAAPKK
The experiment in a line: α-Crystallin modification under longwave ultraviolet illumination. As to conditions: exposure of α-crystallin in the presence of longwave ultraviolet illumination. Format: biochemical.

Experiment [8] is described as follows: Metal reduction capacity of tanned calf lens α-crystallin, Cu(II). In kind it is biochemical. As to conditions: α-crystallin treated with 100 μM reductant, then dialysis. As for the experimental part: Studies of Tanned Calf Lens Crystalin in Assay of Crystallin Protein for Metal Reduction Capacity—α-Crystallin (10 mg/ml) from calf lens was modified by reaction with 3-HK (100 μM), 3-HAA (100 μM), or ASC (100 μM) in PBS, ph 7.4, for 12 hours at 4° C. in the dark. Control samples were incubated with ascorbic acid (100 μM) or without added reductant. The tanning incubation solutions also contained triethylenetetramine (TETA, 200 μM) to prevent cross-linking of the protein. After incubation, free reductant was removed from the tanned α-crystallin preparations by exhaustive dialysis at 4EC in the dark utilizing PBS, pH 7.4, containing CHELEX™ 100 chelating ion exchange resin (BioRad, Hercules, Calif.). The various modified α-crystallin preparations (100 μg/ml) were co-incubated with either Cu(II)-glycine glycine (25 μM) or Fe(III)-citrate (25 μM) for one hour at 37° C. and assayed for metal reduction capacity using the BC and BP spectrophotometric assay as detailed above. Incubated and dialyzed α-crystallin (100 μg/ml) and untreated α-crystallin (100 μg/ml) preparations were used for procedural control.
3-HK: α-crystallin reduced nearly 100% of the available Cu(II) and approximately 20% of the available Fe(III). 3-HAA: α-crystallin reduced approximately 65% of the available Cu(II).

Experiment [9] is described as follows: Hydrogen peroxide assay (DCF fluorometric). The conditions noted are these: reacting with Cu(II), 37° C., dark. Format: biochemical.
In experiment [10] the target is T2, αB-crystallin (Bos taurus, UniProt P02510).
T2 sequence (P02510 1-175): T1 sequence (P02510 1-175)
In words: αB-crystallin cross-linking in total calf lens protein (Western blot). The conditions noted are these: metabolite 10 μM, no added Cu(II), five days 37° C. dark. In general terms: In western blotting, separated proteins are transferred to a membrane and probed.

Regarding `Nc1c(O)cccc1C(=O)O` [3-HAA, 3-hydroxyanthranilic acid], in [1], the “reduction of Cu(II)” value was 100%. Also, in experiment [2], the “reduction of Fe(III)” value is given as “approximately 50%”. Moreover, the “Cu(II) reduction wave in presence of metabolite” value in [3] is reported as “markedly decreased”. In [4], the “hydrogen peroxide generated relative to available Cu(II)” value is listed as “approximately 3 fold” and the hydrogen peroxide generated entry is “approx. 3 μM”. In addition, the “evidence of the hydroxyl radical” value in experiment [5] is “not detected”. For the same compound, in experiment [6], the “effect of Cu(II) on superoxide generation” value was “strongly promoted” and the superoxide production entry was “significant superoxide production”. The “capacity of altered α-crystallin to reduce metal and generate hydrogen peroxide” value in [7] was “dramatically enhanced capacity”.

As for `O=C1O[C@H]([C@@H](O)CO)C(O)=C1O` [ASC, ascorbic acid, reference compound], the “enhancement of α-crystallin reducing efficiency after treatment” value in experiment [8] is on record as “did not result in the enhancement”. Also, the “capacity of altered α-crystallin to reduce metal and generate hydrogen peroxide” value in experiment [7] was “did not share this property”. In addition, in [9], the “time dependence of hydrogen peroxide generation” value is given as “continuous over five hours”.

As to `Nc1ccccc1C(=O)C[C@H](N)C(=O)O` [KYN, L-kynurenine], in experiment [3], the “Cu(II) reduction wave in presence of metabolite” value is “largely unaffected”. Further, in experiment [4], the hydrogen peroxide generated entry was “approx. 0.3 μM”. In addition, in experiment [6], the “effect of Cu(II) on superoxide generation” value is listed as “did not promote” and the superoxide production entry was “negligible”. Also, in experiment [7], the “capacity of altered α-crystallin to reduce metal and generate hydrogen peroxide” value is “dramatically enhanced capacity”. For the same compound, the αB-crystallin cross-linking entry in experiment [10] is “does not induce”.

Regarding `O=C(O)c1cc(O)c2cccc(O)c2n1` [XA, xanthurenic acid], the “reduction of Cu(II)” value in experiment [1] is reported as “approximately 40%”. Moreover, in [2], the “reduction of Fe(III)” value was “did not reduce”.
